Measurements: ChEMBL document CHEMBL5291721, “A preclinical secondary pharmacology resource illuminates target-adverse drug reaction associations of marketed drugs” (Nat Commun, 2023)

Key:
[1] = target: Prostaglandin G/H synthase 1 (Homo sapiens, UniProt P23219); type: functional
[2] = target: Sodium-dependent noradrenaline transporter (Homo sapiens, UniProt P23975)
[3] = target: Vascular endothelial growth factor receptor 2 (Homo sapiens, UniProt P35968); type: functional
[4] = target: T1, Gamma-aminobutyric acid receptor subunit alpha-1 (Rattus norvegicus, UniProt P62813)
[5] = target: T2, Alpha-2A adrenergic receptor (Homo sapiens, UniProt P08913); type: functional, cell-based
T2 sequence (P08913 whole entry): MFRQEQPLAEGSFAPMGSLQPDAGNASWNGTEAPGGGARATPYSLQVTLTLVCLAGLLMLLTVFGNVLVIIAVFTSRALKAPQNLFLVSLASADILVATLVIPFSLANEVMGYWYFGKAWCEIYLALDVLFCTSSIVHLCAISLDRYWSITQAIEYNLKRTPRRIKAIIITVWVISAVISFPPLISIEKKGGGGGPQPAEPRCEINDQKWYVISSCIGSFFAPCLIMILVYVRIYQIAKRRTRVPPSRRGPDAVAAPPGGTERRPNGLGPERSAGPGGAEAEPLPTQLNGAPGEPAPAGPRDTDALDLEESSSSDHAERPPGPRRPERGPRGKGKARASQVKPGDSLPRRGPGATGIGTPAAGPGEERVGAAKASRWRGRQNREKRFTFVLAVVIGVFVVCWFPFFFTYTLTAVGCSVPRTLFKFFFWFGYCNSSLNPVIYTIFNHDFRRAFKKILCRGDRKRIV

[6] = target: T3, Beta-2 adrenergic receptor (Homo sapiens, UniProt P07550); type: functional, cell-based
[7] = target: T4, Alpha-1A adrenergic receptor (Homo sapiens, UniProt P35348); type: functional, cell-based
T4 sequence (P35348 whole entry): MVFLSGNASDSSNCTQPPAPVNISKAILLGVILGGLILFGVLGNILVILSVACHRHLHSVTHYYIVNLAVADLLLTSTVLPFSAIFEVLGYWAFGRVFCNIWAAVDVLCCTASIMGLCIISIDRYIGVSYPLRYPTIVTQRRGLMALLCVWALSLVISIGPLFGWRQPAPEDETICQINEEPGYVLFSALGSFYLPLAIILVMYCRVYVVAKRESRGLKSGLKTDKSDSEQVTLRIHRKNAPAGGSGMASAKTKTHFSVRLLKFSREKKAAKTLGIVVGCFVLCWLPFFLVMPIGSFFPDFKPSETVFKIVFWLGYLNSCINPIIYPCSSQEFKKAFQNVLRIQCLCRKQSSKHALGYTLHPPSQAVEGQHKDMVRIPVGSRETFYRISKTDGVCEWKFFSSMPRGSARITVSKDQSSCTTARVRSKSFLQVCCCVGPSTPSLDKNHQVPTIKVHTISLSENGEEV

[8] = target: Cannabinoid receptor 1 (Homo sapiens, UniProt P21554); type: functional, cell-based
[9] = target: T1, Gamma-aminobutyric acid receptor subunit alpha-1; remark: listed apart in the source
[10] = target: T2, Alpha-2A adrenergic receptor; type: functional, cell-based; remark: listed apart in the source
[11] = target: T5, Muscarinic acetylcholine receptor M2 (Homo sapiens, UniProt P08172); type: functional, cell-based
T5 sequence (P08172 whole entry): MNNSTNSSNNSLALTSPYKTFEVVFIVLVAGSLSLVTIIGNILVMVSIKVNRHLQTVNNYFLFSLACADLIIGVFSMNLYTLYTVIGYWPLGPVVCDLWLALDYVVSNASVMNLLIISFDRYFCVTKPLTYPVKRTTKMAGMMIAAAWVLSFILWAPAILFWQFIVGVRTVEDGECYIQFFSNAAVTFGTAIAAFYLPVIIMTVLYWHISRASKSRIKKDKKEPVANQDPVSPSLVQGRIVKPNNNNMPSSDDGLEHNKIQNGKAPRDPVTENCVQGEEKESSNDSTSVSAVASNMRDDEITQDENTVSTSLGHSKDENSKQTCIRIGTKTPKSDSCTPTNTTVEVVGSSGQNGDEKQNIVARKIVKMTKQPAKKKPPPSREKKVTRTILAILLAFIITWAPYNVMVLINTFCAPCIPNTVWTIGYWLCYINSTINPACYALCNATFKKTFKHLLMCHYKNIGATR

[12] = target: T3, Beta-2 adrenergic receptor
[13] = target: T4, Alpha-1A adrenergic receptor; type: functional, cell-based; remark: listed apart in the source
[14] = target: T6, Equilibrative nucleoside transporter 1 (Homo sapiens, UniProt Q99808)
T6 sequence (Q99808 whole entry): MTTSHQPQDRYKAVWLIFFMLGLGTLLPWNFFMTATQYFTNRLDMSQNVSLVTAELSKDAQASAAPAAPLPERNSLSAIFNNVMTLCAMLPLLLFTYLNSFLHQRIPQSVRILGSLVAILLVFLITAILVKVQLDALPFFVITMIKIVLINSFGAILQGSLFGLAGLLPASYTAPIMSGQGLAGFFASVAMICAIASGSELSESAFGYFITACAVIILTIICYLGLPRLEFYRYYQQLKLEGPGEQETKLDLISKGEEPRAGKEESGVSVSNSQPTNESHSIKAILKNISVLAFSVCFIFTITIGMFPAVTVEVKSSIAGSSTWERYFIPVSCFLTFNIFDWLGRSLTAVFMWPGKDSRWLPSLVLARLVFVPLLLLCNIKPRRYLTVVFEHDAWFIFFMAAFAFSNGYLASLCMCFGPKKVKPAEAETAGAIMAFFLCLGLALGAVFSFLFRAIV

[15] = target: D(3) dopamine receptor (Homo sapiens, UniProt P35462)
[16] = target: Voltage-dependent L-type calcium channel subunit alpha-1C (Rattus norvegicus, UniProt P22002); type: functional
[17] = target: Neuronal acetylcholine receptor subunit alpha-4 (Homo sapiens, UniProt P43681)
[18] = target: Sodium-dependent dopamine transporter (Homo sapiens, UniProt Q01959)
Note: assay procedure not described here.

Sequence of Cannabinoid receptor 1 (P21554 whole entry): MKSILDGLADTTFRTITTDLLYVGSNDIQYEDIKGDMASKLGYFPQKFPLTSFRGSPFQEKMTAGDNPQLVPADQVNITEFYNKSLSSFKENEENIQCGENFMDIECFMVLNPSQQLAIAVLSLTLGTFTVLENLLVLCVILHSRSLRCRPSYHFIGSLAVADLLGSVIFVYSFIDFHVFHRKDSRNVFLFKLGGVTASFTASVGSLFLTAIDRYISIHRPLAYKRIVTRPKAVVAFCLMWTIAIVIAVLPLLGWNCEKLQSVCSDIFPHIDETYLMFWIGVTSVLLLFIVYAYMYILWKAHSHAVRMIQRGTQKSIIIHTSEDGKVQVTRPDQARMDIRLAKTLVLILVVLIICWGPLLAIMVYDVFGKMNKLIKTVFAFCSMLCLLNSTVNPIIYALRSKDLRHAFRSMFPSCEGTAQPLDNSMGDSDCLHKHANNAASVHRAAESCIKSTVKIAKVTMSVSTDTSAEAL
Sequence of Neuronal acetylcholine receptor subunit alpha-4 (P43681 whole entry): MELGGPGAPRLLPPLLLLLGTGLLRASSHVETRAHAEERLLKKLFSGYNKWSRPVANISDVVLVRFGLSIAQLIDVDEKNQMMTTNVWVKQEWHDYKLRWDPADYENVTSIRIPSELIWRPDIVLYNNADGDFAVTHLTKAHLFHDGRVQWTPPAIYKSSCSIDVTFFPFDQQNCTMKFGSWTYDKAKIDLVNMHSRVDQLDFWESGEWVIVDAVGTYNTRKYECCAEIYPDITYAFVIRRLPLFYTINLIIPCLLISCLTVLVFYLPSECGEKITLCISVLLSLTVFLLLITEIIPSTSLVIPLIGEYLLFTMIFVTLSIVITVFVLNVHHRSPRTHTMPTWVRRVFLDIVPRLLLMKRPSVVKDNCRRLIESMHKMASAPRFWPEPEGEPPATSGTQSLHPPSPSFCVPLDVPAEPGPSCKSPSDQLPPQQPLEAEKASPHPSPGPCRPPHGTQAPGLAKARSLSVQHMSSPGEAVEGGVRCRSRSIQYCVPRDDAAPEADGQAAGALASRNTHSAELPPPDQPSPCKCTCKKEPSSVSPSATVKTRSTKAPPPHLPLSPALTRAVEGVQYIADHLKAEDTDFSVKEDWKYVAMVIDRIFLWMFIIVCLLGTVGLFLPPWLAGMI
Sequence of Prostaglandin G/H synthase 1 (P23219 whole entry): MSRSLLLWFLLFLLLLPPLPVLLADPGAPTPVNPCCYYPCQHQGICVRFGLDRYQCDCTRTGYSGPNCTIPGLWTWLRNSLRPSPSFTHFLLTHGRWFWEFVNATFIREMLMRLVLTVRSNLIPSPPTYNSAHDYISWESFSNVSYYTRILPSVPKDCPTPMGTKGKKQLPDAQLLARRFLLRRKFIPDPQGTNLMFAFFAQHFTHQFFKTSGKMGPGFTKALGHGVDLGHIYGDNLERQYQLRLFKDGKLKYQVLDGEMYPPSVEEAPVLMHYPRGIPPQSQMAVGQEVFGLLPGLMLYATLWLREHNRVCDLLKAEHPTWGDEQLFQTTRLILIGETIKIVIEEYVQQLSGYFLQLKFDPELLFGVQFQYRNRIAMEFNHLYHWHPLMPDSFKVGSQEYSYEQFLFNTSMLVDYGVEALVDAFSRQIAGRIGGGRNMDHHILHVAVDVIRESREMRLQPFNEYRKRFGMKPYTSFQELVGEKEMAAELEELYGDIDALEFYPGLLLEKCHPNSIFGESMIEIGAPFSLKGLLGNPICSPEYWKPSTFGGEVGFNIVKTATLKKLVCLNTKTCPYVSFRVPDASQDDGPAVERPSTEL
Sequence of Voltage-dependent L-type calcium channel subunit alpha-1C (P22002 whole entry): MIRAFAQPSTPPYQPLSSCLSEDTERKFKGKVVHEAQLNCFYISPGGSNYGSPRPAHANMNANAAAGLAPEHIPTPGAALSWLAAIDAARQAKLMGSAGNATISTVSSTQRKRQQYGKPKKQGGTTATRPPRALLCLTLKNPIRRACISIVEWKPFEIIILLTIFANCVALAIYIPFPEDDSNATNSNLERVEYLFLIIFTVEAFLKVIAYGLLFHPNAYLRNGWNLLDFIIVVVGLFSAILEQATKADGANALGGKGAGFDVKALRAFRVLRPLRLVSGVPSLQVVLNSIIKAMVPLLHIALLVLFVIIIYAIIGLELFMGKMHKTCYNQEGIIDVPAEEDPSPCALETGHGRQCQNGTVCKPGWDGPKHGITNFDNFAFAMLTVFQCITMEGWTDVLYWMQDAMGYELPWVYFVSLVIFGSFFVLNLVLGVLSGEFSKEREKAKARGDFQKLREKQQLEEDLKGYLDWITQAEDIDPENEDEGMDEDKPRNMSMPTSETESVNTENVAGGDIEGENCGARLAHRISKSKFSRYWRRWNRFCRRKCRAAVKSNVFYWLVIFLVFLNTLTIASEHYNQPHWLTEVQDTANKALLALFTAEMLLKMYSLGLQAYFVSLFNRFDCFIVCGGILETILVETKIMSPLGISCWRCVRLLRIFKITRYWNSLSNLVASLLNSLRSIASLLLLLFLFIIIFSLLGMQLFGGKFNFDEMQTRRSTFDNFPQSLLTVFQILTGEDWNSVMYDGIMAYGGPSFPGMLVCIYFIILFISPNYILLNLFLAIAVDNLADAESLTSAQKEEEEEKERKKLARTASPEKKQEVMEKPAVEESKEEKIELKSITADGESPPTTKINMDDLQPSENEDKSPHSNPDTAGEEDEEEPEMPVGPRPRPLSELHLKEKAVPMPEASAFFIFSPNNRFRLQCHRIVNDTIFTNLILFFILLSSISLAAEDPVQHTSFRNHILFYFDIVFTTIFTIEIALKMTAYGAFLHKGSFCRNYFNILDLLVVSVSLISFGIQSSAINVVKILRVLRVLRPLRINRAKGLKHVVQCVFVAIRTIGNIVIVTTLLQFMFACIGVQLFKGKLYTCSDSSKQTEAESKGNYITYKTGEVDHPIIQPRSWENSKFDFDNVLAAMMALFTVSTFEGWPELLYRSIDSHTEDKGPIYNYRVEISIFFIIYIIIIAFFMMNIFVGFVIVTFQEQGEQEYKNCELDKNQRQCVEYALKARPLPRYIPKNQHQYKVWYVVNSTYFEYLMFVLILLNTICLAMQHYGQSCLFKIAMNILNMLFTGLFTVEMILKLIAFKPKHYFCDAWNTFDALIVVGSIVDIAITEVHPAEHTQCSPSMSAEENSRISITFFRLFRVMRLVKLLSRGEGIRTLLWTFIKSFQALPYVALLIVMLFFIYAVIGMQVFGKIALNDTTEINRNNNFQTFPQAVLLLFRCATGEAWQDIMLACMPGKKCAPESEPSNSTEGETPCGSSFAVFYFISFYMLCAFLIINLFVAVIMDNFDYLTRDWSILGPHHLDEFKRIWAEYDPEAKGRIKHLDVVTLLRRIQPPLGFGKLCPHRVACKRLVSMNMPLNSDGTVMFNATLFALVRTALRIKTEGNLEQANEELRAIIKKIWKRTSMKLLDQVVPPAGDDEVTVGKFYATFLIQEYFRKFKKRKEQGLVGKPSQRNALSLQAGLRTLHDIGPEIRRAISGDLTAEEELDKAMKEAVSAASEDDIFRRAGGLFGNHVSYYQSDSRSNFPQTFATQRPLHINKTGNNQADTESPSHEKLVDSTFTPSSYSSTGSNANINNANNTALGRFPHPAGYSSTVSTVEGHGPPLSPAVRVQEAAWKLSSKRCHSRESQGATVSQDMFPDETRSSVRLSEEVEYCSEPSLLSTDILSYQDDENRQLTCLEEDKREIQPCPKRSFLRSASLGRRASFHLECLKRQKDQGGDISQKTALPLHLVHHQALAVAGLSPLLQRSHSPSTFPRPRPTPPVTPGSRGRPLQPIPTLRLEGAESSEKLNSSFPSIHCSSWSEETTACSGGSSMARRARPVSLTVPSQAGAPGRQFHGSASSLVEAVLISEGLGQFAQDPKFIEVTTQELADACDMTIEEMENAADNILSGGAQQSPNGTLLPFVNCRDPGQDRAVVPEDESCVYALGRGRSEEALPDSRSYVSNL
T3 sequence (P07550 whole entry): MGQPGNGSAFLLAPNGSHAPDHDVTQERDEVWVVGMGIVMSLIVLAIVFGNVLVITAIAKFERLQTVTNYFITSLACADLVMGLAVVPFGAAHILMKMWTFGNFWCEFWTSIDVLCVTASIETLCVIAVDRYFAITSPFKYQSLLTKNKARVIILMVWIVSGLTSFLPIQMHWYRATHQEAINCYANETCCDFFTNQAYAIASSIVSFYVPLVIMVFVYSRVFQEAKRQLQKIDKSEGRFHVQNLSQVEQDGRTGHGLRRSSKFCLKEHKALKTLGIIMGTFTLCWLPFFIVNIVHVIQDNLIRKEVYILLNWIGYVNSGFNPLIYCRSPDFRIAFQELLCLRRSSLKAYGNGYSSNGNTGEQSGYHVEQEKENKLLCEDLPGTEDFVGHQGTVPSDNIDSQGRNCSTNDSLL
Sequence of D(3) dopamine receptor (P35462 whole entry): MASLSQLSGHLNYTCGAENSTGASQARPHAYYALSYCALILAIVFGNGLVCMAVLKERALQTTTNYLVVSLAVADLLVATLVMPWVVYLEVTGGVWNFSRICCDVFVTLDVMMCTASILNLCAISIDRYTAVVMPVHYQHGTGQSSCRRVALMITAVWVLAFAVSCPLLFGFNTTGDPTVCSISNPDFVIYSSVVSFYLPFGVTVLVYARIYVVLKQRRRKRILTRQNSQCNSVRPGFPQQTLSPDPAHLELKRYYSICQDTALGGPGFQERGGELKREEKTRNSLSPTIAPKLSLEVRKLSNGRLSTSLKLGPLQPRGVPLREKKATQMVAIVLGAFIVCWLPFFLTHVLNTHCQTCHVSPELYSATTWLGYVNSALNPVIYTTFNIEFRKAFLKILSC

| AC50 [5] | AC50 [6] | AC50 [7] | AC50 [8] | AC50 [9] | AC50 [10] | AC50 [11] | AC50 [12] | AC50 [13] | AC50 [14] | AC50 [16] | AC50 [17] | AC50 [18] | Compound | AC50 [1] | AC50 [2] | AC50 [3] | AC50 [4] | AC50 [15] |
| --- | --- | --- | --- | --- | --- | --- | --- | --- | --- | --- | --- | --- | --- | --- | --- | --- | --- | --- |
| – | – | – | – | – | – | – | – | – | – | – | – | – | CC(=O)OCC(=O)[C@@]1(O)CC[C@H]2[C@@H]3CCC4=CC(=O)CC[C@]4(C)[C@H]3[C@@H](O)C[C@@]21C [HYDROCORTISONE ACETATE] | > 30 µM | > 30 µM | > 30 µM | > 30 µM | – |
| > 10 µM | > 30 µM | > 30 µM | > 30 µM | > 10 µM | > 10 µM | 4.3 µM | > 10 µM | 0.41 µM | > 30 µM | – | – | – | CN(C)CCCN1c2ccccc2CCc2ccccc21 [IMIPRAMINE] | – | – | – | – | – |
| – | – | – | – | – | – | – | – | – | – | – | – | – | O=C(CCC/C=C\C[C@@H]1[C@@H](CC[C@@H](O)CCc2ccccc2)[C@H](O)C[C@@H]1O)OCCCCO[N+](=O)[O-] [LATANOPROSTENE BUNOD] | > 30 µM | > 30 µM | – | > 30 µM | > 30 µM |
| > 30 µM | > 30 µM | > 30 µM | > 30 µM | > 10 µM | > 30 µM | > 10 µM | > 10 µM | > 30 µM | > 10 µM | > 10 µM | > 10 µM | > 10 µM | CCC[C@@H]1C[C@@H](C(=O)N[C@@H]([C@H]2O[C@H](SC)[C@H](O)[C@@H](O)[C@H]2O)[C@@H](C)O)N(C)C1 [LINCOMYCIN] | – | – | – | – | – |
| > 10 µM | > 30 µM | > 30 µM | > 30 µM | > 10 µM | > 10 µM | > 10 µM | > 10 µM | > 30 µM | > 30 µM | > 10 µM | > 10 µM | > 30 µM | CN(Cc1cnc2nc(N)nc(N)c2n1)c1ccc(C(=O)N[C@@H](CCC(=O)O)C(=O)O)cc1 [METHOTREXATE] | – | – | – | – | – |
| – | – | – | – | – | – | – | – | – | – | – | – | – | COC(=O)C[C@](O)(CCCC(C)(C)O)C(=O)O[C@@H]1C(OC)=C[C@]23CCCN2CCc2cc4c(cc2[C@H]13)OCO4 [OMACETAXINE MEPESUCCINATE] | > 10 µM | > 30 µM | – | > 30 µM | > 30 µM |
| > 30 µM | > 30 µM | 0.45 µM | > 30 µM | > 30 µM | > 30 µM | > 30 µM | > 30 µM | – | – | > 30 µM | > 30 µM | > 30 µM | CCCN1CC(NS(=O)(=O)N(CC)CC)CC2Cc3c(O)cccc3CC21 (configuration not stated) [QUINAGOLIDE] | – | – | – | – | – |
| – | – | – | – | – | – | – | – | – | – | – | – | – | COc1cc(C)c2c(Oc3cccc(C(F)(F)F)c3)c(OC)cc(NC(C)CCCN)c2n1 (configuration not stated) [TAFENOQUINE] | 9.38 µM | 2.26 µM | – | > 30 µM | 2.57 µM |
| – | – | – | – | – | – | – | – | – | – | – | – | – | COc1ccc2c(C(=S)N(C)CC(=O)O)cccc2c1C(F)(F)F [TOLRESTAT] | > 30 µM | > 30 µM | – | > 30 µM | > 30 µM |

| Compound | AC50 [5] | AC50 [6] | AC50 [7] | AC50 [8] | AC50 [9] | AC50 [10] | AC50 [11] | AC50 [12] | AC50 [13] | AC50 [14] | AC50 [16] | AC50 [17] | AC50 [18] | AC50 [1] | AC50 [2] | AC50 [3] | AC50 [4] | AC50 [15] |
| --- | --- | --- | --- | --- | --- | --- | --- | --- | --- | --- | --- | --- | --- | --- | --- | --- | --- | --- |
| CC(C)c1cccc(C(C)C)c1O [PROPOFOL] | > 30 µM | > 30 µM | > 30 µM | > 30 µM | – | > 30 µM | > 30 µM | – | > 30 µM | > 30 µM | – | > 30 µM | > 30 µM | – | – | – | – | – |
